# Measured values: patent US6602888B2, “Use of α1C specific compounds to treat benign prostatic hyperplasia” (Synaptic Pharmaceutical Corporation, priority 1992, dated 2003)
# Read-outs that look alike come from different tables or passages of the source.
# Molecular target: T1, human α1B adrenergic receptor (Homo sapiens, UniProt P35368)
# T1 sequence (P35368 1-520): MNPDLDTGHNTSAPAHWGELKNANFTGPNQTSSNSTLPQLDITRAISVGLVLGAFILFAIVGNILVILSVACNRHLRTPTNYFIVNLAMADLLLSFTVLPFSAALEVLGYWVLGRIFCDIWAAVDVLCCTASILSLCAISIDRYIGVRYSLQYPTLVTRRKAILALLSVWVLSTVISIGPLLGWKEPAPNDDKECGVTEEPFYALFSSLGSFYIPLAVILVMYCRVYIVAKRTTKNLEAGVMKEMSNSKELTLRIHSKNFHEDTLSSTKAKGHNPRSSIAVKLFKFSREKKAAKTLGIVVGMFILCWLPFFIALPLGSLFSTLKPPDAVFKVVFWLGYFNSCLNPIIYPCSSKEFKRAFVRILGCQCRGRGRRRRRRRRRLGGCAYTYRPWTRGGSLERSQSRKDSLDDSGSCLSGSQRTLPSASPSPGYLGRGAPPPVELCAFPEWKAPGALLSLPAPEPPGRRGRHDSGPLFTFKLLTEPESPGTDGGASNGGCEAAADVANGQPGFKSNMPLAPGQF
# Assay: Radioligand binding, [3H]prazosin, cloned human α1B adrenergic receptor
Molecule,Alpha-1 Adrenergic a1B (pK1),Human Alpha-1 Adrenergic (pK1) a1B,"Human Alpha-1 Adrenergic (pK1) a1B (Table 1, cloned human receptor)","Alpha-1 Adrenergic a1B (pK1) (Table 2, cloned human receptor)",Ki [nM]
"4-fluoro-4-(8-fluoro-1,3,4,5-tetrahydro-2H-pyrido[4,3-b]indol-2-yl)butyrophenone hydrochloride [Compound A-30360, reference compound]",7.86,7.86,–,–,–
"COc1ccccc1N1CCN(CCCNc2c(C)c(=O)n(C)c(=O)n2C)CC1 [5-Methyl-Urapidil, 5-methylurapidil, reference compound]",6.77,6.77,–,–,–
O=C(CCCN1CCC(NC(=O)c2ccccc2)CC1)c1ccc(Cl)cc1 [Compound 7],–,–,7.18,7.18,–
O=C(CCCN1CCC(NC(=O)c2ccccc2)CC1)c1ccccc1 [Compound 9],–,–,6.76,6.76,–
"COc1ccc(CCNCC2CCc3ccccc3C2)cc1 (stereo not shown) [Compound 11, 2-[(4-Methoxyphenethyl)aminomethyl]-1,2,3,4-tetrahydronaphthalene]",–,–,–,7.14,72.4
